Source: patent US20170265474A1, “BICYCLIC COMPOUNDS AS PEST CONTROL AGENTS” (BAYER CROPSCIENCE AKTIENGESELLSCHAFT, priority 2014, published 2017)
Like-named read-outs stand apart in the source and are kept apart here. One block for each compound: values may come before it.

What was measured:
[1] = log P by HPLC on reversed-phase (C18) columns, OECD Guideline 117; type: physicochemical; conditions: reversed-phase (C18) HPLC column
Procedure: The log P values were determined in accordance with OECD Guideline 117 (EC Directive 92/69/EEC) by HPLC (high-performance liquid chromatography) using reversed-phase (RP) columns (C18), by the following methods: [a] The LC-MS determination in the acidic range is carried out at pH 2.7 with 0.1% aqueous formic acid and acetonitrile (contains 0.1% formic acid) as eluents; linear gradient from 10% acetonitrile to 95% acetonitrile. [b] LC-MS determination in the neutral range is effected at pH 7.8 with 0.001 molar aqueous ammonium hydrogencarbonate solution and acetonitrile as eluents; linear gradient from 10% acetonitrile to 95% acetonitrile. Calibration is carried out using unbranched alkan-2-ones (having 3 to 16 carbon atoms) with known log P values (log P values determined on the basis of the retention times by linear interpolation between two successive alkanones).

Myzus persicae [2] = test: Myzus persicae spray test (Chinese cabbage leaf discs); type: in vivo, green peach aphid (Myzus persicae); conditions: foliar, 144 h, application rate 500 g/ha, after 6 days, 100% = all aphids killed, read-out: efficacy
Procedure: Myzus persicae—Spray Test • Solvent: 78 parts by weight of acetone • 1.5 parts by weight of dimethylformamide • Emulsifier: alkylaryl polyglycol ether To produce a suitable preparation of active compound, 1 part by weight of active compound is dissolved using the specified parts by weight of solvent and made up with water containing an emulsifier concentration of 1000 ppm until the desired concentration is attained. To produce further test concentrations, the formulation is diluted with emulsifier-containing water. Discs of Chinese cabbage leaves (Brassica pekinensis) infested by all stages of the green peach aphid (Myzus persicae) are sprayed with an active compound formulation of the desired concentration. After 6 days, the efficacy in % is determined. 100% means that all the aphids have been killed; 0% means that no aphids have been killed.

Myzus persicae [3] = test: Myzus persicae spray test (bell pepper plants); type: in vivo, green peach aphid (Myzus persicae); conditions: after 6 days
Procedure: Myzus persicae—Spray Test • Solvent: 7 parts by weight of dimethylformamide • Emulsifier: alkylaryl polyglycol ether To produce a suitable preparation of active compound, 1 part by weight of active compound is dissolved using the specified parts by weight of solvent and made up with water containing an emulsifier concentration of 1000 ppm until the desired concentration is attained. To produce further test concentrations, the formulation is diluted with emulsifier-containing water. If the addition of ammonium salts or/and penetrants is required, these are each added in a concentration of 1000 ppm to the formulation solution. Bell pepper plants (Capsicum annuum) severely infested with the green peach aphid (Myzus persicae) are treated by spraying with the active compound formulation in the desired concentration. After 6 days, the kill in % is determined. 100% means that all of the aphids have been killed; 0% means that none of the aphids have been killed.

Aphis gossypii = Aphis gossypii spray test (cotton plants); type: in vivo, cotton aphid (Aphis gossypii); conditions: application rate 4 ppm, after 6 days
Procedure: Aphis gossypii—Spray Test • Solvent: 7 parts by weight of dimethylformamide • Emulsifier: alkylaryl polyglycol ether To produce a suitable preparation of active compound, 1 part by weight of active compound is dissolved using the specified parts by weight of solvent and made up with water containing an emulsifier concentration of 1000 ppm until the desired concentration is attained. To produce further test concentrations, the formulation is diluted with emulsifier-containing water. If the addition of ammonium salts or/and penetrants is required, these are each added in a concentration of 1000 ppm to the formulation solution. Cotton plants (Gossypium hirsutum) which are heavily infested by the cotton aphid (Aphis gossypii) are sprayed with an active compound formulation of the desired concentration. After 6 days, the kill in % is determined. 100% means that all the aphids have been killed; 0% means that no aphids have been killed.

Tetranychus urticae = Tetranychus urticae spray test, OP-resistant (bean leaf discs); type: in vivo, greenhouse red spider mite (Tetranychus urticae); conditions: application rate 500 g/ha, after 6 days, 100% = all spider mites killed
Procedure: Tetranychus urticae—Spray Test, OP-Resistant • Solvent: 78.0 parts by weight of acetone • 1.5 parts by weight of dimethylformamide • Emulsifier: alkylaryl polyglycol ether
To produce a suitable preparation of active compound, 1 part by weight of active compound is dissolved using the specified parts by weight of solvent and made up with water containing an emulsifier concentration of 1000 ppm until the desired concentration is attained. To produce further test concentrations, the formulation is diluted with emulsifier-containing water.
Discs of bean leaves (Phaseolus vulgaris) infested with all stages of the greenhouse red spider mite (Tetranychus urticae) are sprayed with an active compound formulation of the desired concentration.
After 6 days, the efficacy in % is determined. 100% means that all the spider mites have been killed; 0% means that no spider mites have been killed.

[4] = acidic range, pH 2.7, 0.1% aqueous formic acid / acetonitrile, read-out: logP[a]
[5] = neutral range, pH 7.8, 0.001 molar aqueous ammonium hydrogencarbonate / acetonitrile, read-out: logP[b]

SMILES: c1cncc(-c2nc3ccc(N4CCCC4)nc3s2)c1 [Example 6, 2-(3-Pyridyl)-5-pyrrolidin-1-ylthiazolo[5,4-b]pyridine]
chromatographic logP [1, 4]: 2.53 | chromatographic logP [1, 5]: 2.97 | efficacy (kill) (Myzus persicae [3]; application rate 100 ppm): 95%

SMILES: c1cnc(-c2ccc3nc(-c4cccnc4)sc3n2)nc1 [Example 7, 2-(3-Pyridyl)-5-pyrimidin-2-ylthiazolo[5,4-b]pyridine]
chromatographic logP [1, 4]: 1.43 | chromatographic logP [1, 5]: 1.5 | efficacy (kill) (Aphis gossypii): 80%

SMILES: c1ccc(-c2ccc3nc(-c4cccnc4)sc3n2)nc1 [Example 8, 5-(2-Pyridyl)-2-(3-pyridyl)thiazolo[5,4-b]pyridine]
chromatographic logP [1, 4]: 2.12 | chromatographic logP [1, 5]: 2.68 | efficacy (kill) (Myzus persicae [3]; application rate 4 ppm): 80%

SMILES: c1cncc(-c2nc3ccc(N4CCOCC4)nc3s2)c1 [Example 11, 4-[2-(3-Pyridyl)thiazolo[5,4-b]pyridin-5-yl]morpholine]
chromatographic logP [1, 4]: 2.1 | chromatographic logP [1, 5]: 1.95 | pest or weed control at 500 g/ha (Myzus persicae [2]): 90%

SMILES: FC(F)(F)c1cnn(-c2ccc3nc(-c4cccnc4)sc3n2)c1 [Example 13, 2-(3-Pyridyl)-5-[4-(trifluoromethyl)pyrazol-1-yl]thiazolo[5,4-b]pyridine]
chromatographic logP [1, 4]: 3.82 | chromatographic logP [1, 5]: 3.72

SMILES: CSCCC(=O)N(C)c1ccc2nc(-c3cccnc3)sc2n1 [Example 22]
chromatographic logP [1, 4]: 1.98 | pest or weed control at 500 g/ha (Myzus persicae [2]): 90%

SMILES: CN(C(=O)CCS(C)(=O)=O)c1ccc2nc(-c3cccnc3)sc2n1 [Example 30, N-Methyl-3-(methylsulfonyl)-N-[2-(pyridin-3-yl)[1,3]thiazolo[5,4-b]pyridin-5-yl]propanamide]
chromatographic logP [1, 4]: 1.25 | pest or weed control at 500 g/ha (Myzus persicae [2]): 90%

SMILES: CNC(=O)c1ccc2nc(-c3cccnc3)sc2n1 [Example 32]
chromatographic logP [1, 4]: 1.35

SMILES: CCN(C)C(=O)c1ccc2nc(-c3cccnc3)sc2n1 [Example 33]
chromatographic logP [1, 4]: 1.53

SMILES: CSCCNC(=O)c1ccc2nc(-c3cccnc3)sc2n1 [Example 35]
chromatographic logP [1, 4]: 2.03 | pest or weed control at 500 g/ha (Myzus persicae [2]): 90%

SMILES: CS(=O)(=O)CCC(=O)Nc1ccc2nc(-c3cccnc3)sc2n1 [Example 38]
chromatographic logP [1, 4]: 1.18

SMILES: Clc1ccc2nc(-c3cccnc3)sc2n1 [Example 40]
chromatographic logP [1, 4]: 2.26 | chromatographic logP [1, 5]: 2.33

More lines, main results first:

chromatographic logP [1, 4]: 4.81 | chromatographic logP [1, 5]: 4.75
SMILES: Cc1cc(F)c(-c2ccc3nc(-c4cccnc4)sc3n2)cc1SCC(F)(F)F [Example 1, 5-[2-Fluoro-4-methyl-5-(2,2,2-trifluoroethylsulfanyl)phenyl]-2-(3-pyridyl)thiazol [5,4-b]pyridine]
pest or weed control at 500 g/ha (Myzus persicae [2]): 100% | efficacy (kill) (Myzus persicae [3]; application rate 4 ppm): 100%

chromatographic logP [1, 4]: 4.67 | chromatographic logP [1, 5]: 4.64
SMILES: Cc1ccc(-c2ccc3nc(-c4cccnc4)sc3n2)cc1SCC(F)(F)F [Example 2, 5-[4-Methyl-3-(2,2,2-trifluoroethylsulfanyl)phenyl]-2-(3-pyridyl)thiazolo[5,4-b]pyridine]
pest or weed control at 500 g/ha (Myzus persicae [2]): 90% | efficacy (kill) (Myzus persicae [3]; application rate 4 ppm): 100%

chromatographic logP [1, 4]: 3.02 | chromatographic logP [1, 5]: 3.09
SMILES: Cc1cc(F)c(-c2ccc3nc(-c4cccnc4)sc3n2)cc1[S+]([O-])CC(F)(F)F (stereo not shown) [Example 3, 5-[2-Fluoro-4-methyl-5-(2,2,2-trifluoroethylsulfinyl)phenyl]-2-(3-pyridyl)thiazolo[5,4-b]pyridine]
efficacy (kill) (Myzus persicae [3]; application rate 4 ppm): 97%

chromatographic logP [1, 4]: 2.99 | chromatographic logP [1, 5]: 2.98
SMILES: Cc1ccc(-c2ccc3nc(-c4cccnc4)sc3n2)cc1[S+]([O-])CC(F)(F)F (stereo not shown) [Example 4, 5-[4-Methyl-3-(2,2,2-trifluoroethylsulfinyl)phenyl]-2-(3-pyridyl)thiazolo[5,4-b]pyridine]
pest or weed control at 500 g/ha (Myzus persicae [2]): 90% | efficacy (kill) (Myzus persicae [3]; application rate 4 ppm): 95%

chromatographic logP [1, 4]: 3.99 | chromatographic logP [1, 5]: 4.06
SMILES: Cc1ccc(Nc2ccc3nc(-c4cccnc4)sc3n2)cc1SCC(F)(F)F [Example 9, N-[4-Methyl-3-(2,2,2-trifluoroethylsulfanyl)phenyl]-2-(3-pyridyl)thiazolo[5,4-b]pyridine-5-amine]
efficacy (Tetranychus urticae): 90%

chromatographic logP [1, 4]: 2.65 | chromatographic logP [1, 5]: 2.69
SMILES: FC(F)(F)c1ccc2nc(-c3cccnc3)sc2n1 [Example 10, 2-(3-Pyridyl)-5-(trifluoromethyl)thiazolo[5,4-b]pyridine]
efficacy (Tetranychus urticae): 90%

chromatographic logP [1, 4]: 4.81 | chromatographic logP [1, 5]: 4.78
SMILES: Cc1ccc(N(C)c2ccc3nc(-c4cccnc4)sc3n2)cc1SCC(F)(F)F [Example 12, N-methyl-N-[4-methyl-3-(2,2,2-trifluoroethylsulfanyl)phenyl]-2-(3-pyridyl)thiazolo[5,4-b]pyridine-5-amine]
pest or weed control at 500 g/ha (Myzus persicae [2]): 90%

chromatographic logP [1, 4]: 1.34
SMILES: CNc1ccc2nc(-c3cccnc3)sc2n1 [Example 15]

chromatographic logP [1, 4]: 2.23
SMILES: CN(C(=O)c1cccc([S+]([O-])C(F)(F)F)c1)c1ccc2nc(-c3cccnc3)sc2n1 (stereo not shown) [Example 29]
pest or weed control at 500 g/ha (Myzus persicae [2]): 100%

chromatographic logP [1, 4]: 1.54
SMILES: CN(C(=O)c1cccc(S(=O)(=O)C(F)(F)F)c1)c1ccc2nc(-c3cccnc3)sc2n1 [Example 31]
pest or weed control at 500 g/ha (Myzus persicae [2]): 90%

chromatographic logP [1, 4]: 2.1
SMILES: O=C(Nc1cccc(S(=O)(=O)C(F)(F)F)c1)c1ccc2nc(-c3cccnc3)sc2n1 [Example 34]

chromatographic logP [1, 4]: 3.09
SMILES: O=C(Nc1cccc([S+]([O-])C(F)(F)F)c1)c1ccc2nc(-c3cccnc3)sc2n1 (stereo not shown) [Example 36]

chromatographic logP [1, 4]: 2.61
SMILES: O=C(Nc1ccc2nc(-c3cccnc3)sc2n1)c1cccc([S+]([O-])C(F)(F)F)c1 (stereo not shown) [Example 37]

chromatographic logP [1, 4]: 3.79 | chromatographic logP [1, 5]: 3.83
SMILES: FC(F)(F)c1ccn(-c2ccc3nc(-c4cccnc4)sc3n2)n1 [Example 39]

chromatographic logP [1, 4]: 2.75 | chromatographic logP [1, 5]: 2.77
SMILES: Cc1ccc(Nc2ccc3nc(-c4cccnc4)sc3n2)cc1[S+]([O-])CC(F)(F)F (stereo not shown) [Example 42]
